Assays:
[1] = target: T1, PKD2 (Homo sapiens, UniProt Q9BZL6); test: KiNativ cellular kinase profiling; format: cell-based; conditions: for inhibition at 1 µM: A-375, read-out: Percent inhibition of kinase labeling by ATP-biotin; for Percent inhibition of kinase labeling by ATP-biotin: A375 cells, 1 μM, 3 hours, PKD2, labeling site Lys1
T1 sequence (Q9BZL6 1-878): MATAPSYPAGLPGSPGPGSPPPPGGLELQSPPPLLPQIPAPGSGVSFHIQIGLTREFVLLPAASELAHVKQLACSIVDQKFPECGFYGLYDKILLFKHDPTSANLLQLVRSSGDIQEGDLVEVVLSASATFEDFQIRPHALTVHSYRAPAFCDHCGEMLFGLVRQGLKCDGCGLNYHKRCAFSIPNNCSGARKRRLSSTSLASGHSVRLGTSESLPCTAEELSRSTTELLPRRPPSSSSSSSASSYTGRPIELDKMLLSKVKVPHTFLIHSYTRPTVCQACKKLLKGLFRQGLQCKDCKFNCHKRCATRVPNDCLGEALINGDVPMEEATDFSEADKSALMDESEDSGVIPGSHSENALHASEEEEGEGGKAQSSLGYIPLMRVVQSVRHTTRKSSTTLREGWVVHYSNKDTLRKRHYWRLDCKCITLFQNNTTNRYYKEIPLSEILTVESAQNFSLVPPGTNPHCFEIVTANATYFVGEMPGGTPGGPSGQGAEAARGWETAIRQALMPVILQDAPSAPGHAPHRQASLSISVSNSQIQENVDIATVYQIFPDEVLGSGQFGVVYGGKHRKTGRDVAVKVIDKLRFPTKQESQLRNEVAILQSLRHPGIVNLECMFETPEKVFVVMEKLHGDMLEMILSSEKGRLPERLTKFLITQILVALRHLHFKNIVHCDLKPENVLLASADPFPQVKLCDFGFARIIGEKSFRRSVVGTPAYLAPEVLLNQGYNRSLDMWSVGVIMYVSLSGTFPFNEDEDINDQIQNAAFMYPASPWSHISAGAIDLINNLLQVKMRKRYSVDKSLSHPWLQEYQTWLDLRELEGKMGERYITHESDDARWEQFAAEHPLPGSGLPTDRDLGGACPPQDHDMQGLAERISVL

[2] = target: T2, PHKg2 (Homo sapiens, UniProt P15735); test: KiNativ cellular kinase profiling; format: cell-based; conditions: for inhibition at 1 µM: A-375, read-out: Percent inhibition of kinase labeling by ATP-biotin; for Percent inhibition of kinase labeling by ATP-biotin: A375 cells, 1 μM, 3 hours, PHKg2, labeling site Lys1
T2 sequence (P15735 1-406): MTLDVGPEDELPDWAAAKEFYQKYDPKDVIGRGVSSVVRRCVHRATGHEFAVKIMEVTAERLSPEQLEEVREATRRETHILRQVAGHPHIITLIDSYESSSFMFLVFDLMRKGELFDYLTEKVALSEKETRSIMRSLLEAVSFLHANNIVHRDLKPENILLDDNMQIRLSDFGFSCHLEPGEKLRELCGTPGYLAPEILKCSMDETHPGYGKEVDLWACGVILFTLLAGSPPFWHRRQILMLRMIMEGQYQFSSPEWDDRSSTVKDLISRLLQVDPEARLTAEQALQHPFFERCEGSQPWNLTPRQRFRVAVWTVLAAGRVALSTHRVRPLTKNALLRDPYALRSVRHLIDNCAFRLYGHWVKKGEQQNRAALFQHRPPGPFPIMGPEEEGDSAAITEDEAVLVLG

[3] = target: CK1a (Homo sapiens, UniProt P48729); test: KiNativ cellular kinase profiling; format: cell-based; conditions: for inhibition at 1 µM: A-375, read-out: Percent inhibition of kinase labeling by ATP-biotin; for Percent inhibition of kinase labeling by ATP-biotin: A375 cells, 1 μM, 3 hours, CK1a, labeling site Lys2
[4] = system: CK1d,CK1e; test: KiNativ cellular kinase profiling; format: cell-based; conditions: A375 cells, 1 μM, 3 hours, labeling site Lys2
[5] = target: T3, AurA (Homo sapiens, UniProt O14965); test: KiNativ cellular kinase profiling; format: cell-based; conditions: for inhibition at 1 µM: A-375, read-out: Percent inhibition of kinase labeling by ATP-biotin; for Percent inhibition of kinase labeling by ATP-biotin: A375 cells, 1 μM, 3 hours, AurA, labeling site Lys2
T3 sequence (O14965 1-403): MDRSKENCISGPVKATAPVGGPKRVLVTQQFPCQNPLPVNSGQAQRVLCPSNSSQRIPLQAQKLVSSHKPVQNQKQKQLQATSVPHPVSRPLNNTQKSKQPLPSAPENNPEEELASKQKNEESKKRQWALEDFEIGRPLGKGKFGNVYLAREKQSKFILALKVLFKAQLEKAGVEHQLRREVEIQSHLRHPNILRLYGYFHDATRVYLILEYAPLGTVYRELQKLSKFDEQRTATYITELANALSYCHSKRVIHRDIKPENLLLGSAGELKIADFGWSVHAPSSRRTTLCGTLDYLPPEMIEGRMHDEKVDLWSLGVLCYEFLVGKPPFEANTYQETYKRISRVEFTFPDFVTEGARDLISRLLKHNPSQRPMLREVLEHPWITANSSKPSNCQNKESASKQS

[6] = target: T4, IKKa (Homo sapiens, UniProt O15111); test: KiNativ cellular kinase profiling; format: cell-based; conditions: for inhibition at 1 µM: A-375, read-out: Percent inhibition of kinase labeling by ATP-biotin; for Percent inhibition of kinase labeling by ATP-biotin: A375 cells, 1 μM, 3 hours, IKKa, labeling site Lys2
T4 sequence (O15111 1-745): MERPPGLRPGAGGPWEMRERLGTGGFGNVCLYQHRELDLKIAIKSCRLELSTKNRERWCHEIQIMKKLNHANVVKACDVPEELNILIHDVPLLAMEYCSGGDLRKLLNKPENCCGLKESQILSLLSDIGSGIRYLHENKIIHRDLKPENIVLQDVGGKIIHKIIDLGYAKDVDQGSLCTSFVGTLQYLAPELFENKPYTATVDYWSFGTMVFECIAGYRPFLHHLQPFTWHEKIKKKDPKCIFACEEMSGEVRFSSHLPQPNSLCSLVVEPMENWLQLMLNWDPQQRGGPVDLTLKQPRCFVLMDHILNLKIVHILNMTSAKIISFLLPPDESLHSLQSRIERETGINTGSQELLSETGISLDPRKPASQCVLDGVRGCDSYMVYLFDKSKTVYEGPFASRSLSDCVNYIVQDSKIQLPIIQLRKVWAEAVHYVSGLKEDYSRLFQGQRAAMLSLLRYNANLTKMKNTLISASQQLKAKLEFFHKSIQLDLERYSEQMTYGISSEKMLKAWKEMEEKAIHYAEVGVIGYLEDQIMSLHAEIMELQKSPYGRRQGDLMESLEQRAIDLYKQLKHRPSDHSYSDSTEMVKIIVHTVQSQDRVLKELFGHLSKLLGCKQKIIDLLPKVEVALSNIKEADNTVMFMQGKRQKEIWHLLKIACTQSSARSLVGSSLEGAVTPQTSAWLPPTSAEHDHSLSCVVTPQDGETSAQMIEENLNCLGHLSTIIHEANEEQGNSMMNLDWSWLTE

[7] = system: ZC2/TNIK,ZC3/MINK; test: KiNativ cellular kinase profiling; format: cell-based; conditions: A375 cells, 1 μM, 3 hours, labeling site Lys2
[8] = system: ZC1/HGK,ZC2/TNIK, ZC3/MINK; test: KiNativ cellular kinase profiling; format: cell-based; conditions: A375 cells, 1 μM, 3 hours, labeling site Lys2
[9] = system: MAP2K1,MAP2K2; test: KiNativ cellular kinase profiling; format: cell-based; conditions: A375 cells, 1 μM, 3 hours; MAP2K1,MAP2K2, labeling site Lys2
[10] = target: RAF1 (Homo sapiens, UniProt P04049); test: KiNativ cellular kinase profiling; format: cell-based; conditions: for inhibition at 1 µM: A-375, read-out: Percent inhibition of kinase labeling by ATP-biotin; for Percent inhibition of kinase labeling by ATP-biotin: A375 cells, 1 μM, 3 hours, RAF1, labeling site Lys2
[11] = target: KIT(V559D) (Homo sapiens, UniProt P10721, V559D); test: KinomeScan dissociation constant; format: binding
KIT(V559D), sequence (P10721 26-976 V559D): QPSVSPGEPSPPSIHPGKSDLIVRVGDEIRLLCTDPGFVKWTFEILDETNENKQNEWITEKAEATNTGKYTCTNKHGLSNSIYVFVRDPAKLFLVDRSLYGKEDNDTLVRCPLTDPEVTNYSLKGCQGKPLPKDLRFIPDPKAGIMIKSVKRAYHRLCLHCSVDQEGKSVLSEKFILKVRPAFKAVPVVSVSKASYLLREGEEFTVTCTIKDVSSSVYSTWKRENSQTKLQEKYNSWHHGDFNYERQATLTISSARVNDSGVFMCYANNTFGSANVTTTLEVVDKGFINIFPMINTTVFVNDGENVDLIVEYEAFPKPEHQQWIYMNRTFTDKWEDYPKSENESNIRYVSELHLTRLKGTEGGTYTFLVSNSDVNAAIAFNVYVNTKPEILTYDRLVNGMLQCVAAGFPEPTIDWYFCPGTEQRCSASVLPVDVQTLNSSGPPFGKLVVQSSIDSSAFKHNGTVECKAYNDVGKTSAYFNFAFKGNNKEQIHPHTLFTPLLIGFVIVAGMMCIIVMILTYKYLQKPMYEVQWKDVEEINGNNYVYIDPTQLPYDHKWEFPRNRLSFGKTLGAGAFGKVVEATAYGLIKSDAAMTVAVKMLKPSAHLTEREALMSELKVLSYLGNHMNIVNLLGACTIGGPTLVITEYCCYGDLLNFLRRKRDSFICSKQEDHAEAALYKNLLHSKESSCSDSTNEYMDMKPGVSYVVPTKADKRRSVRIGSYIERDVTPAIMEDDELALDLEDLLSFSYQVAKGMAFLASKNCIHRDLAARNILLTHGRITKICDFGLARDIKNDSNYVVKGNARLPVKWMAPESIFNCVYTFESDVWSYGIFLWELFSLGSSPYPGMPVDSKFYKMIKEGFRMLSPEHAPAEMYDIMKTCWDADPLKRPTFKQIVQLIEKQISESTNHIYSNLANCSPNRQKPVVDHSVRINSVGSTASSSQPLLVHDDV

CK1a, sequence (P48729 whole entry): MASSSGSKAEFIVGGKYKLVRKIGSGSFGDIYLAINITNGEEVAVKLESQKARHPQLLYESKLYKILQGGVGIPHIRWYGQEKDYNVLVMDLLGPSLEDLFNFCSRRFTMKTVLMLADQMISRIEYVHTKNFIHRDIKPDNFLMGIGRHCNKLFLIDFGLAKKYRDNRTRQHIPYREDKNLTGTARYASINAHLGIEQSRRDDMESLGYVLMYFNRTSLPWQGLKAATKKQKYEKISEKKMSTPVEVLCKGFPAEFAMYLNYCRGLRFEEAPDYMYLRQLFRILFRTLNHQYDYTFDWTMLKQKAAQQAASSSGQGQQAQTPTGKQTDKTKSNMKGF
RAF1, sequence (P04049 whole entry): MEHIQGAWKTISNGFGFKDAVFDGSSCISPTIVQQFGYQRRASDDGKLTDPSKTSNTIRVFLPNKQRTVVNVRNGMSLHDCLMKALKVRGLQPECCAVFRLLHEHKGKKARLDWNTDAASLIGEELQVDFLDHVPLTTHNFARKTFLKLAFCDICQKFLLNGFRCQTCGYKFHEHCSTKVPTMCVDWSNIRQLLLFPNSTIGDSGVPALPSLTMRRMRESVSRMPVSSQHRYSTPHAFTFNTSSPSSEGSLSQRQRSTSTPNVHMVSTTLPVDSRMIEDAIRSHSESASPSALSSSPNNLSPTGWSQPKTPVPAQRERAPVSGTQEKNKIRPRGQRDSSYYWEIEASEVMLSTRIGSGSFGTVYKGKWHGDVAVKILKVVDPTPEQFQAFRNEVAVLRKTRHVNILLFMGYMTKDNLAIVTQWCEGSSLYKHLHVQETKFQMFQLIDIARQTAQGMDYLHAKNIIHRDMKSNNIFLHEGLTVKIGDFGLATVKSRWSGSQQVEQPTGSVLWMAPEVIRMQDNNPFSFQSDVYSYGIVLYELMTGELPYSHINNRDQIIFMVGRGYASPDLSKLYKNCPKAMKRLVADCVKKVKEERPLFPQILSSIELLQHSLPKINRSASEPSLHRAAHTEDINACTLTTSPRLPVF

inhibition at 1 µM [1] [%] | inhibition at 1 µM [2] [%] | inhibition at 1 µM [3] [%] | inhibition at 1 µM [5] [%] | inhibition at 1 µM [6] [%] | inhibition at 1 µM [10] [%] | Kd [11] [nM] | Structure (SMILES) | Percent inhibition of kinase labeling by ATP-biotin [4] [%] | Percent inhibition of kinase labeling by ATP-biotin [7] [%] | Percent inhibition of kinase labeling by ATP-biotin [8] [%] | Percent inhibition of kinase labeling by ATP-biotin [9] [%] | Percent inhibition of kinase labeling by ATP-biotin [1] [%] | Percent inhibition of kinase labeling by ATP-biotin [2] [%] | Percent inhibition of kinase labeling by ATP-biotin [3] [%] | Percent inhibition of kinase labeling by ATP-biotin [5] [%] | Percent inhibition of kinase labeling by ATP-biotin [6] [%] | Percent inhibition of kinase labeling by ATP-biotin [10] [%]
40.9 | -76 | 61.1 | 68.2 | -7.3 | 25.5 | 8.2 | CN(C)C/C=C/C(=O)Nc1cccc(C(=O)Nc2ccc(Nc3nccc(-c4c(-c5ccccc5)nn5ccccc45)n3)cc2)c1 [JNK-IN-11] | 88.4 | 75.9 | 65.1 | −10.4 | – | – | – | – | – | –
– | – | – | – | – | – | – | CCC(=O)Nc1cccc(C(=O)Nc2ccc(Nc3nccc(-c4cccnc4)n3)cc2)c1 [JNK-IN-6] | 32.4 | 52.8 | 8.8 | 24.3 | 12 | 28 | 19.5 | 9.9 | 27.3 | −20.2
4.9 | -0.8 | -13.6 | -8 | 4.9 | -41.4 | 92 | Cc1cc(NC(=O)c2cccc(NC(=O)/C=C/CN(C)C)c2)ccc1Nc1nccc(-c2cccnc2)n1 [JNK-IN-8] | −21.8 | 45.1 | −11.3 | 3.2 | – | – | – | – | – | –
– | – | – | – | – | – | – | CN(C)C/C=C/C(=O)Nc1cccc(C(=O)Nc2ccc(Nc3nccc(/C(C#N)=C4\Nc5ccccc5S4)n3)cc2)c1 [JNK-IN-12] | −75 | −36.2 | −25.5 | −3.7 | −79 | −94.1 | −96 | −23 | −79.2 | 8.6

Structure (SMILES) | inhibition at 1 µM [1] [%] | inhibition at 1 µM [2] [%] | inhibition at 1 µM [3] [%] | inhibition at 1 µM [5] [%] | inhibition at 1 µM [6] [%] | inhibition at 1 µM [10] [%] | Kd [11] [nM] | Percent inhibition of kinase labeling by ATP-biotin [4] [%] | Percent inhibition of kinase labeling by ATP-biotin [7] [%] | Percent inhibition of kinase labeling by ATP-biotin [8] [%] | Percent inhibition of kinase labeling by ATP-biotin [9] [%] | Percent inhibition of kinase labeling by ATP-biotin [1] [%] | Percent inhibition of kinase labeling by ATP-biotin [2] [%] | Percent inhibition of kinase labeling by ATP-biotin [3] [%] | Percent inhibition of kinase labeling by ATP-biotin [5] [%] | Percent inhibition of kinase labeling by ATP-biotin [6] [%] | Percent inhibition of kinase labeling by ATP-biotin [10] [%]
CN(C)C/C=C/C(=O)Nc1cccc(C(=O)Nc2ccc(Nc3nccc(-c4cccnc4)n3)cc2)c1 [JNK-IN-7] | 13.6 | -7 | -20.2 | 20.9 | -9.2 | -7.3 | 48 | 8.4 | 31 | 8.3 | 3.2 | – | – | – | – | – | –

Source: article PMC3270411 (Chemistry & biology, 2012)
